Experimental data: patent publication US5395840A, “Heterocyclically substituted phenyl-cyclohexane-carboxylic acid derivatives” (Bayer Aktiengesellschaft, priority 1993, dated 1995)

How the values were obtained:
smooth muscle cells = assay: Inhibition of the proliferation of smooth muscle cells (3H-thymidine incorporation); type: cell-based; settings: rat aortic smooth muscle cells, stimulated by 10% FCS
Protocol: To determine the antiproliferative action of the compounds, smooth muscle cells are used which are obtained from the aortas of rats by the media explant technique [R. Ross, J. Cell. Biol. 50., 172, 1971]. The cells are inoculated into suitable culture dishes, as a rule 96-hole plates, and cultured at 37° C. in 5% CO2 for 2-3 days in medium 199 containing,7.5% FCS and 7.59% NCS, 2 mM L-glutamine and 15 mM HEPES, pH 7.4. The cells are then synchronized for 2-3 days by withdrawal of serum and then stimulated into growth using serum or other factors. Test compounds are simultaneously added. After 16-20 hours, 1 μCi ^3 H-thymidine is added and after a further 4 hours the incorporation of this substance into the TCA-precipitable DNA of the cells is determined. To determine the IC50 values, the active compound concentration is calculated which, on sequential dilution of the active compound, causes semi-maximum inhibition of the thymidine incorporation produced by 10% FCS.

[1] = test system: contractions induced by AII (isolated rabbit aorta rings); assay: Inhibition of the vascular contraction in isolated rabbit aorta rings in vitro, contractions induced by angiotensin II; type: cell-based; settings: Oryctolagus cuniculus, based on the 3rd = submaximal agonist concentration, read-out: IC50 against contractions induced by: AII
Protocol: Rabbits of either sex are stunned by a blow to the back of the head and bled out, or in some cases anaesthetized with Nembutal (about 60-80 mg/kg i.v.) and sacrificed by opening the thorax. The thoracic aorta is removed, freed from adhering connective tissue, divided into ring segments 1.5 mm wide and individually transferred under an initial loading of about 3.5 g to 10 ml organ baths containing Krebs-Henseleit nutrient solution, aerated with 95% O2 /5% CO2 and temperature-controlled at 37° C., of the following composition: 119 mmol/l of NaCl; 2.5 mmol/l of CaCl2 ×2H2 O; 1.2 mmol/l of KH2 PO4; 10 mmol/l of glucose; 4.8 mmol/l of KCl; 1.4 mmol/l of MgSO4 ×7H2 O and 25 mmol/l of NaHCO3.
The contractions are determined isometrically by means of Statham UC2 cells via bridge amplifiers (ifd Mulheim or DSM Aalen) and digitalized by means of A/D converters (System 570, Keithley Munich) and assessed. The agonist dose response curves (DRCs) are plotted hourly. With each DRC, 3 or 4 individual concentrations are applied to the baths =at a 4 min interval. […]
The height of the 3rd DRC, in a normal case, is used as a reference quantity for the assessment of the test substance to be investigated in further runs, which substance is applied to the baths in the following DRCs in each case in increasing dose at the start of the incubation period. […]

Angiotensin II Receptor = target: T1, Angiotensin II Receptor (Bos taurus, UniProt P25104); assay: Interaction with the angiotensin II receptor in membrane fractions of the adrenal gland cortex (bovine), 3H-angiotensin II binding; settings: 3H-angiotensin II (3-5 nM), bovine adrenal gland cortex membranes, 60 min at room temperature, pH 7.2
T1 construct: Adrenal gland cortices from cattle (AGCs), which have been freshly removed and carefully freed from gland medulla; from tissue; host or cells: bovine adrenal gland cortex, partially purified membrane fractions
T1 sequence (P25104 1-359): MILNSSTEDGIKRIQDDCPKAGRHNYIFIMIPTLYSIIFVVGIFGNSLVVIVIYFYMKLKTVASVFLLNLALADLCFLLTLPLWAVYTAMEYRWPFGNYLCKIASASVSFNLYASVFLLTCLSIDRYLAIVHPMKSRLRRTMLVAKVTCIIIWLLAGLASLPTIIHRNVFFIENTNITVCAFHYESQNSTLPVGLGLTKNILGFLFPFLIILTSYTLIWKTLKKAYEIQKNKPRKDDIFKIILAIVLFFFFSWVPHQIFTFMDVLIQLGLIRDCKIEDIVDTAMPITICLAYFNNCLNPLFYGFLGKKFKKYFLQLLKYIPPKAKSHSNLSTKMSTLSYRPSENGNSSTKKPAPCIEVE
Protocol: Adrenal gland cortices from cattle (AGCs), which have been freshly removed and carefully freed from gland medulla, are comminuted in sucrose solution (0.32M) with the aid of an Ultra-Turrax (Janke & Kunkel, Staufen i.B.) to give a coarse membrane homogenate and partially purified to give membrane fractions in two centrifugation steps.
The receptor binding investigations are carried out on partially purified membrane fractions of bovine AGC using radioactive angiotensin II in an assay volume of 0.25 ml, which specifically contains the partially purified membranes (50-80 μg), ^3 H-angiotensin II (3-5 nM), test buffer solution (50 mM Tris, pH 7.2, 5 mM MgCl2) and the substances to be investigated. After an incubation period of 60 min at room temperature, the unbound radioactivity of the samples is separated by means of moistened glass fiber filters (Whatman GF/C) and the bound radioactivity is measured […] in a scintillation cocktail after washing the protein with ice-cold buffer solution (50 mM Tris/HCl, pH 7.4, 5% PEG 6000). The raw data were analysed using computer programs to give Ki or IC50 values (Ki : IC50 values corrected for the radioactivity used; IC50 values: concentration at which the substance to be investigated causes a 50% inhibition of the specific binding of the radioligand).

CCCCc1nc2cc(Br)cnc2n1Cc1ccc(C2CCCCC2C(=O)N[C@H](CO)c2ccccc2)cc1 (stereo partly shown) [Example 29]
IC50 (smooth muscle cells; Rattus norvegicus): 4 nM

O=C(N[C@H](CO)c1ccccc1)C1CCCCC1c1ccc(Cn2c(C3CC3)nc3cccnc32)cc1 (single isomer, unassigned) [Example 16]
IC50 (smooth muscle cells): 410 nM

CCCCc1nc2ccccc2n1Cc1ccc(C2CCCCC2C(=O)N[C@H](CO)c2ccccc2)cc1 (stereo partly shown) [Example 31]
IC50 (smooth muscle cells; Rattus norvegicus): 3 nM

O=C(N[C@H](CO)c1ccccc1)C1CCCCC1c1ccc(Cn2c(-c3ccccc3)nc3cccnc32)cc1 (stereo partly shown) [Example 25]
IC50 (smooth muscle cells; Rattus norvegicus): 26 nM

CC(C)(C)OC(=O)[C@@H]1CCCC[C@H]1c1ccc(Cn2c(-c3ccccc3)nc3cccnc32)cc1 (relative stereo) [Example 9]
IC50 [1]: 260 nM
Ki (Angiotensin II Receptor): 47 nM

O=C(N[C@H](CO)c1ccccc1)C1CCCCC1c1ccc(Cn2c(C3CC3)nc3cccnc32)cc1 (single isomer, unassigned) [Example 17]
IC50 (smooth muscle cells): 2 nM

NC(=O)C(NC(=O)C1CCCCC1c1ccc(Cn2c(C3CC3)nc3cccnc32)cc1)c1ccccc1 (single isomer, unassigned) [Example 21]
IC50 (smooth muscle cells; Rattus norvegicus): 7 nM

CCCCc1nc2ccccc2n1Cc1ccc(C2CCCCC2C(=O)N[C@H](CO)c2ccccc2)cc1 (stereo partly shown) [Example 30]
IC50 [1]: 220 nM
Ki (Angiotensin II Receptor): 19 nM
